From PubChem BioAssay AID248 (DTP/NCI, 2004)
“And” between values parts separate entries of the source, which are not always exact repeats. Identical values can stand only once. Inconclusive results and toxic doses are left out.

System: L1210 leukemia ip in BDF1 mice, survival T/C
Experiment: NCI In Vivo Anticancer Drug Screen. Data for tumor model L1210 Leukemia (intraperitoneal) in B6D2F1 (BDF1) mice
Details: endpoint: mean survival time, higher = longer survival
Summary of the method: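 Tumor was transplanted into mice, which were then dosed with test compound or vehicle alone. Survival was recorded for each group, and the treated figure was expressed relative to the control figure.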

[1] = dose: 100.0 mg/kg/injection, schedule: Q01DX001 (ip), vehicle: saline
[2] = dose: 200.0 mg/kg/injection, schedule: Q01DX001 (ip), vehicle: saline
[3] = dose: 400.0 mg/kg/injection, schedule: Q01DX001 (ip), vehicle: saline
[4] = dose: 25.0 mg/kg/injection, schedule: Q01DX009 (ip), vehicle: saline
[5] = dose: 50.0 mg/kg/injection, schedule: Q01DX009 (ip), vehicle: saline
[6] = dose: 100.0 mg/kg/injection, schedule: Q01DX009 (ip), vehicle: saline
[7] = dose: 100.0 mg/kg/injection, schedule: Q04DX003 (ip), vehicle: saline
[8] = dose: 100.0 mg/kg/injection, schedule: Q01DX009 (ip), vehicle: saline with Tween-80
[9] = dose: 100.0 mg/kg/injection, schedule: Q04DX003 (ip), vehicle: saline with Tween-80
[10] = dose: 200.0 mg/kg/injection, schedule: Q04DX003 (ip), vehicle: saline with Tween-80
[11] = dose: 400.0 mg/kg/injection, schedule: Q04DX003 (ip), vehicle: saline with Tween-80
[12] = dose: 100.0 mg/kg/injection, schedule: Q01DX009 (ip), vehicle: Klucel (hydroxypropylcellulose) (HPC)
[13] = dose: 200.0 mg/kg/injection, schedule: Q01DX009 (ip), vehicle: Klucel (hydroxypropylcellulose) (HPC)
[14] = dose: 400.0 mg/kg/injection, schedule: Q01DX009 (ip), vehicle: Klucel (hydroxypropylcellulose) (HPC)
[15] = dose: 100.0 mg/kg/injection, schedule: Q04DX002 (ip), vehicle: saline with Tween-80
[16] = dose: 200.0 mg/kg/injection, schedule: Q04DX002 (ip), vehicle: saline with Tween-80
[17] = dose: 400.0 mg/kg/injection, schedule: Q04DX002 (ip), vehicle: saline with Tween-80
[18] = dose: 100.0 mg/kg/injection, schedule: Q04DX003 (ip), vehicle: Klucel (hydroxypropylcellulose) (HPC)
[19] = dose: 200.0 mg/kg/injection, schedule: Q01DX009 (ip), vehicle: saline
[20] = dose: 400.0 mg/kg/injection, schedule: Q01DX009 (ip), vehicle: saline

COc1ccc(-n2c(=O)c(N=Nc3ccc(Br)cc3)c(O)n(-c3ccccc3C)c2=S)cc1
T/C (dose: 75.0 mg/kg/injection, schedule: Q04DX003 (ip), vehicle: Klucel (hydroxypropylcellulose) (HPC)): 98 % of control
T/C (dose: 150.0 mg/kg/injection, schedule: Q04DX003 (ip), vehicle: Klucel (hydroxypropylcellulose) (HPC)): 104 % of control
T/C (dose: 300.0 mg/kg/injection, schedule: Q04DX003 (ip), vehicle: Klucel (hydroxypropylcellulose) (HPC)): 107 % of control

C=CCc1cc(C)ccc1OC(=O)c1cc([N+](=O)[O-])cc([N+](=O)[O-])c1
T/C [1]: 102 % of control
T/C [2]: 98 % of control
T/C [3]: 98 % of control

OC(c1ccccc1)c1ccncc1 (centres undefined)
T/C (dose: 100.0 mg/kg/injection, schedule: Q01DX001 (ip), vehicle: saline with Tween-80): 103 % of control
T/C (dose: 200.0 mg/kg/injection, schedule: Q01DX001 (ip), vehicle: saline with Tween-80): 97 % of control
T/C (dose: 400.0 mg/kg/injection, schedule: Q01DX001 (ip), vehicle: saline with Tween-80): 103 % of control

CC1CCCN(C(=O)Nc2cccc(C(F)(F)F)c2)C1 (centres undefined)
T/C (dose: 100.0 mg/kg/injection, schedule: Q01DX009 (ip), vehicle: gum acacia): 100 % of control
T/C (dose: 200.0 mg/kg/injection, schedule: Q01DX009 (ip), vehicle: gum acacia): 110 % of control
T/C (dose: 400.0 mg/kg/injection, schedule: Q01DX009 (ip), vehicle: gum acacia): 99 % of control

N=C(N)c1ccc(OCCCCCCOc2ccc(C(=N)N)cc2I)cc1
T/C (dose: 6.25 mg/kg/injection, schedule: Q01DX Z (oral), vehicle: saline): 103 % of control
T/C (dose: 12.5 mg/kg/injection, schedule: Q01DX Z (oral), vehicle: saline): 103 % of control
T/C (dose: 25.0 mg/kg/injection, schedule: Q01DX Z (oral), vehicle: saline): 97 % of control
T/C (dose: 50.0 mg/kg/injection, schedule: Q01DX Z (oral), vehicle: saline): 101 % of control
T/C (dose: 100.0 mg/kg/injection, schedule: Q01DX Z (oral), vehicle: saline): 100 % of control
T/C (dose: 200.0 mg/kg/injection, schedule: Q01DX Z (oral), vehicle: saline): 100 % of control

CCN1Cc2ccc(O)cc2C1
T/C [4]: 103 % of control
T/C (dose: 25.0 mg/kg/injection, schedule: Q04DX003 (ip), vehicle: saline): 107 % of control
T/C [5]: 95 % of control
T/C (dose: 50.0 mg/kg/injection, schedule: Q04DX003 (ip), vehicle: saline): 107 % of control
T/C [6]: 96 % of control and 97 % of control
T/C [7]: 100 % of control and 102 % of control

CC(C)C(Cl)C(=O)O (centres undefined)
T/C (dose: 75.0 mg/kg/injection, schedule: Q01DX001 (ip), vehicle: saline): 96 % of control
T/C (dose: 150.0 mg/kg/injection, schedule: Q01DX001 (ip), vehicle: saline): 104 % of control

COc1cc(/C=N/NC(N)=S)cc(OC)c1OC
T/C [8]: 93 % of control
T/C [9]: 108 % of control
T/C (dose: 200.0 mg/kg/injection, schedule: Q01DX009 (ip), vehicle: saline with Tween-80): 98 % of control
T/C [10]: 110 % of control
T/C (dose: 400.0 mg/kg/injection, schedule: Q01DX009 (ip), vehicle: saline with Tween-80): 104 % of control
T/C [11]: 106 % of control

COc1ccc(C(SCC(N)C(=O)O)(c2ccccc2)c2ccc(OC)cc2)cc1 (centres undefined)
T/C (dose: 3.13 mg/kg/injection, schedule: Q01DX009 (ip), vehicle: saline): 98 % of control
T/C (dose: 6.25 mg/kg/injection, schedule: Q01DX009 (ip), vehicle: saline): 120 % of control
T/C (dose: 6.3 mg/kg/injection, schedule: Q01DX009 (ip), vehicle: other): 110 % of control
T/C (dose: 12.5 mg/kg/injection, schedule: Q01DX009 (ip), vehicle: other): 117 % of control
T/C [4]: 158 % of control
T/C [5]: 96 % of control

O=c1[nH]c2ccncc2c(=O)n1O
T/C [12]: 94 % of control
T/C [13]: 104 % of control
T/C [14]: 94 % of control

Cc1ccc(NC(=O)C(=O)Nc2ccc(C)cc2)cc1
T/C [12]: 90 % of control
T/C (dose: 100.0 mg/kg/injection, schedule: Q04DX003 (ip), vehicle: other): 93 % of control
T/C [13]: 89 % of control
T/C (dose: 200.0 mg/kg/injection, schedule: Q04DX003 (ip), vehicle: other): 92 % of control
T/C [14]: 90 % of control
T/C (dose: 400.0 mg/kg/injection, schedule: Q04DX003 (ip), vehicle: other): 89 % of control

Clc1ccccc1C=NC1CCCCC1
T/C [15]: 96 % of control
T/C [16]: 96 % of control
T/C [17]: 93 % of control

CCC(C)C(C(=O)OCCN(CC)CC)c1ccccc1 (centres undefined)
T/C (dose: 50.0 mg/kg/injection, schedule: Q01DX009 (ip), vehicle: Klucel (hydroxypropylcellulose) (HPC)): 95 % of control
T/C [12]: 97 % of control
T/C [18]: 96 % of control
T/C [13]: 104 % of control
T/C (dose: 200.0 mg/kg/injection, schedule: Q04DX003 (ip), vehicle: Klucel (hydroxypropylcellulose) (HPC)): 91 % of control

COC(=O)c1c(C)ccc2c(O)c3c(cc12)C(=O)c1c2c(cc(O)c1C3=O)C1(C)OC(C)(O2)C(O)C(N(C)C)C1O (centres undefined)
T/C [4]: 96 % of control
T/C [5]: 96 % of control
T/C [6]: 104 % of control
T/C [19]: 98 % of control
T/C [20]: 102 % of control

CC(C)(C)OC(=O)NC(C(=O)O)C1=CCC=CC1 (centres undefined)
T/C [18]: 94 % of control
T/C (dose: 400.0 mg/kg/injection, schedule: Q04DX003 (ip), vehicle: Klucel (hydroxypropylcellulose) (HPC)): 102 % of control

CCOc1cc(C(F)(F)F)nc2c3c(cc(OC)c12)CCCN3CC
T/C [9]: 102 % of control
T/C [10]: 100 % of control
T/C [11]: 97 % of control

CC1(C)OCC(C2OC(C)(C)OC2C(CO)Nc2ccc([N+](=O)[O-])cc2[N+](=O)[O-])O1 (centres undefined)
T/C [1]: 98 % of control
T/C [2]: 93 % of control
T/C [3]: 93 % of control

NC(N)=N/N=C\CC(O)CO (centres undefined)
T/C (dose: 15.0 mg/kg/injection, schedule: Q01DX Z (ip), vehicle: methylcellulose (MC)): 100 % of control
T/C (dose: 30.0 mg/kg/injection, schedule: Q01DX Z (ip), vehicle: methylcellulose (MC)): 103 % of control
T/C (dose: 60.0 mg/kg/injection, schedule: Q01DX Z (ip), vehicle: methylcellulose (MC)): 100 % of control
T/C (dose: 60.0 mg/kg/injection, schedule: Q01DX Z (oral), vehicle: methylcellulose (MC)): 97 % of control
T/C (dose: 120.0 mg/kg/injection, schedule: Q01DX Z (ip), vehicle: methylcellulose (MC)): 103 % of control
T/C (dose: 120.0 mg/kg/injection, schedule: Q01DX Z (oral), vehicle: methylcellulose (MC)): 94 % of control
T/C (dose: 240.0 mg/kg/injection, schedule: Q01DX Z (oral), vehicle: methylcellulose (MC)): 88 % of control
T/C (dose: 480.0 mg/kg/injection, schedule: Q01DX Z (oral), vehicle: methylcellulose (MC)): 86 % of control

CN(C)CCOC(=O)c1ccc(N)cc1
T/C [7]: 96 % of control
T/C (dose: 200.0 mg/kg/injection, schedule: Q04DX003 (ip), vehicle: saline): 98 % of control

O=C(c1ccccc1)c1ccc(N2CCOCC2)cc1
T/C (dose: 100.0 mg/kg/injection, schedule: Q01DX001 (ip), vehicle: other): 96 % of control
T/C (dose: 200.0 mg/kg/injection, schedule: Q01DX001 (ip), vehicle: other): 98 % of control
T/C (dose: 400.0 mg/kg/injection, schedule: Q01DX001 (ip), vehicle: other): 90 % of control

CCN(CC)CC(Cl)CN(CC)CC
T/C (dose: 50.0 mg/kg/injection, schedule: Q01DX009 (ip), vehicle: saline with Tween-80): 104 % of control
T/C [8]: 87 % of control
T/C [9]: 97 % of control
T/C [10]: 88 % of control

NC(CSS(=O)(=O)O)=NCc1ccccc1
T/C (dose: 12.5 mg/kg/injection, schedule: Q04DX002 (ip), vehicle: Klucel (hydroxypropylcellulose) (HPC)): 114 % of control
T/C (dose: 25.0 mg/kg/injection, schedule: Q04DX002 (ip), vehicle: Klucel (hydroxypropylcellulose) (HPC)): 101 % of control
T/C (dose: 50.0 mg/kg/injection, schedule: Q04DX002 (ip), vehicle: Klucel (hydroxypropylcellulose) (HPC)): 97 % of control

Cc1cc(O)ccc1CCC#N
T/C [6]: 96 % of control and 91 % of control
T/C [15]: 95 % of control and 101 % of control
T/C [19]: 104 % of control and 115 % of control
T/C [16]: 95 % of control and 96 % of control
T/C [20]: 96 % of control and 89 % of control
T/C [17]: 95 % of control and 101 % of control
